ChEMBL document CHEMBL4330100, “Selective estrogen receptor degraders with novel structural motifs induce regression in a tamoxifen-resistant breast cancer xenograft” (Bioorg Med Chem Lett, 2019)
Calls of active or inactive are those of the source. The calls are words filed in the database; no cut-off is given here.

Key:
Estrogen receptor = target: T1, Estrogen receptor (Homo sapiens, UniProt P03372); experiment: Induction of ERalpha degradation in human MCF7 cells in phenol red free RPMI medium containing 5% charcoal-stripped FBS incubated for 4 hrs by IRDye 800CW/DRAQ5 dye based in-cell Western assay
T1 sequence (P03372 whole entry): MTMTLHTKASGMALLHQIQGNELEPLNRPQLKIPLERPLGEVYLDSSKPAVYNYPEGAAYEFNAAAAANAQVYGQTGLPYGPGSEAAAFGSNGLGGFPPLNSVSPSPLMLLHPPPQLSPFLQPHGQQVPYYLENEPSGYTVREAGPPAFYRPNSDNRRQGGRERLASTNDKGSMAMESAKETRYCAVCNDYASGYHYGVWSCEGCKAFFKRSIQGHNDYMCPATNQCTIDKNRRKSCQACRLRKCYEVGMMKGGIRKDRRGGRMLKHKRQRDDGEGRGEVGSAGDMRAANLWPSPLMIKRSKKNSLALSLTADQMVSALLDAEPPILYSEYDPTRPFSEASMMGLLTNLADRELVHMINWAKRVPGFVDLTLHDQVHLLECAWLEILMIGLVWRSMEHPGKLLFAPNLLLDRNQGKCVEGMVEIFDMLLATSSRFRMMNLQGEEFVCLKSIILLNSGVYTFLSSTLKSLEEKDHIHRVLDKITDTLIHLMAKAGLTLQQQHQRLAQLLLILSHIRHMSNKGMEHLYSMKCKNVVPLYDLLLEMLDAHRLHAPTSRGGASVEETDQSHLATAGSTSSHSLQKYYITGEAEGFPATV

MCF7 = experiment: Antiproliferative activity against human MCF7 cells assessed as reduction in cell proliferation measured after 5 days by Cell-titer-Glo assay; format: functional, cell-based; details: MCF7, 120 h
Rattus norvegicus [1] = experiment: In vivo antagonist activity at estrogen receptor in CD-IGS rat assessed as inhibition of estrogen-stimulated uterine growth at 1 mg/kg, po administered daily 15 mins before estrogen treatment for 3 days and measured 24 hrs post last dose relative to ARN-180; format: functional
[2] = AUC in CD-1 mouse at 10 mg/kg, po; format: ADME, organism-based; details: in vivo
[3] = Oral bioavailability in CD-1 mouse at 10 mg/kg; format: ADME, organism-based; details: in vivo; for bioavailability: CD-1, mouse
[4] = Volume of distribution at steady state in CD-1 mouse at 3 mg/kg, iv; format: ADME, organism-based; details: in vivo; for Vd: CD-1, mouse, read-out: Vdss
[5] = Half life in CD-1 mouse at 3 mg/kg, iv; format: ADME, organism-based; details: in vivo; for half-life: CD-1, mouse
[6] = Fraction unbound in 10% CD-1 mouse plasma at 10 uM measured after 20 to 24 hrs by equlibrium dialysis method; format: ADME, cell-free; details: 10% plasma
Homo sapiens = experiment: Antitumor activity against human TamR1 cells xenografted in nu/nu mouse assessed as tumor regression at 30 mg/kg, po administered daily for 4 weeks; format: functional, organism-based
[7] = AUC in CD-1 mouse at 10 mg/kg, po administered at truncated timecourse (1, 4, 24 hrs); format: ADME, organism-based; details: in vivo
[8] = Oral bioavailability in CD-1 mouse at 10 mg/kg administered at truncated timecourse (1, 4, 24 hrs); format: ADME, organism-based; details: in vivo
[9] = Plasma clearance in CD-1 mouse at 2 mg/kg, iv administered as cassette dose; format: ADME, organism-based
[10] = Volume of distribution at steady state in CD-1 mouse at 2 mg/kg, iv administered as cassette dose; format: ADME, organism-based; details: in vivo, read-out: Vdss
[11] = Half life in CD-1 mouse at 2 mg/kg, iv administered as cassette dose; format: ADME, organism-based; details: in vivo
[12] = Plasma clearance in CD-1 mouse at 3 mg/kg, iv; format: ADME, organism-based
Rattus norvegicus [13] = experiment: In vivo antagonist activity at estrogen receptor in CD-IGS rat assessed as reduction in 17alpha-ethynylestradiol-stimulated increase in uterine wet weight at 1 mg/kg, po administered daily 15 mins before 17alpha-ethynylestradiol treatment for 3 days and measured 24 hrs post last dose relative to basal level; format: functional

Work on COc1ccc(/C(=C(\c2ccc(/C=C/C(=O)O)cc2)c2ccc3nccn3c2)C2CCC2)c(Cl)c1 yielded an EC50 (Estrogen receptor) of 0.3 nM, an IC50 (MCF7) of 0.7 nM and an Efficacy (Rattus norvegicus [1]) of 93%. It also gave an AUC ([2]; mouse) of 8400 ng·h/mL, an F ([3]; mouse) of 69% and a Vdss ([4]; mouse) of 0.9 L/kg. For the same molecule, the t1/2 ([5]; mouse) was 1.2 h, the fraction unbound at 10 µM [6] was 0.015 and the Activity (Homo sapiens) was “inactive”.
Work on COc1ccc(/C(=C(\c2ccc(/C=C/C(=O)O)cc2)c2ccc(-c3cn[nH]c3)cc2)C2CCC2)c(Cl)c1 yielded an EC50 (Estrogen receptor) of 1.5 nM, an IC50 (MCF7) of 5.1 nM and an Efficacy (Rattus norvegicus [1]) of 93%. The AUC at 24 h [7] was 18000 ng·h/mL, the bioavailability [8] was 52% and the clearance [9] was 4.8 mL/min/kg. The Vd [10] was 0.6 L/kg, the half-life [11] was 180 min and the fraction unbound at 10 µM [6] was 0.002.
COc1ccc(/C(=C(\c2ccc(/C=C/C(=O)O)cc2)c2ccc(-c3cncs3)cc2)C2CCC2)c(Cl)c1 showed an EC50 (Estrogen receptor) of 0.8 nM, an IC50 (MCF7) of 1.8 nM and an Efficacy (Rattus norvegicus [1]) of 93%. It also gave an AUC at 24 h [7] of 3800 ng·h/mL and a fraction unbound at 10 µM [6] of 0.001.
In the case of COc1ccc(/C(=C(\c2ccc(/C=C/C(=O)O)cc2)c2ccc(N3CCOCC3)cc2)C2CCC2)c(Cl)c1, the EC50 (Estrogen receptor) is reported as 0.6 nM, the IC50 (MCF7) is reported as 2.1 nM and the Efficacy (Rattus norvegicus [1]) is reported as 92%. The AUC ([2]; CD-1, mouse, read-out: AUC) was 40000 ng·h/mL, the bioavailability [3] was greater than 100% and the clearance [12] was 5.1 mL/min/kg. It also gave a Vd [4] of 1.5 L/kg, a half-life [5] of 174 min and a fraction unbound at 10 µM [6] of 0.004. For the same molecule, the Activity (Homo sapiens) was “Active”.
COc1ccc(/C(=C(\c2ccc(/C=C/C(=O)O)cc2)c2ccc3scnc3c2)C2CCC2)c(Cl)c1 gave an EC50 (Estrogen receptor) of 0.4 nM, an IC50 (MCF7) of 0.9 nM and an Efficacy (Rattus norvegicus [1]) of 94%. The AUC ([2]; CD-1, mouse, read-out: AUC) was 75000 ng·h/mL, the bioavailability [3] was 80% and the clearance [12] was 1.8 mL/min/kg. It also gave a Vd [4] of 0.3 L/kg, a half-life [5] of 192 min and a fraction unbound at 10 µM [6] of 0.002. For the same molecule, the Activity (Homo sapiens) was “Active”.
Work on CC/C(=C(/c1ccc(/C=C/C(=O)O)cc1)c1ccc2[nH]ncc2c1)c1ccc(F)cc1Cl [BRILANESTRANT] yielded a half-life [5] of 276 min and a fraction unbound at 10 µM [6] of 0.011.
Molecule N#Cc1ccc(/C(=C(\c2ccc(/C=C/C(=O)O)cc2)c2ccc(-c3cn[nH]c3)cc2)C2CCC2)c(Cl)c1 has an EC50 (Estrogen receptor) of 0.7 nM, an IC50 (MCF7) of 2.2 nM and an Efficacy (Rattus norvegicus [13]) of 94%.
Work on N#Cc1cc(Cl)ccc1/C(=C(\c1ccc(/C=C/C(=O)O)cc1)c1ccc(-c2cn[nH]c2)cc1)C1CCC1 yielded an EC50 (Estrogen receptor) of 1.1 nM, an IC50 (MCF7) of 4.4 nM and an Efficacy (Rattus norvegicus [13]) of 94%.
In the case of O=C(O)/C=C/c1ccc(/C(=C(\c2ccc(C(F)(F)F)cc2Cl)C2CCC2)c2ccc(N3CCOCC3)cc2)cc1, the EC50 (Estrogen receptor) is reported as 1.9 nM, the IC50 (MCF7) is reported as 6.9 nM and the Efficacy (Rattus norvegicus [13]) is reported as 93%.
